Data as given in patent US20250108036A1, “COMPOSITIONS FOR REMOVING SENESCENT CELLS AND USES THEREOF” (LIFECEUTIX CO., LTD., priority 2021, published 2025).
Like-named read-outs stand apart in the source and are kept apart here.

Legend:
Assay type in all cases: cell-based, human
[1] = tested on: foreskin cells in which senescence was induced by doxorubicin; experiment: CellTiter-Glo cell viability of doxorubicin-induced senescent foreskin cells (Examples 1-2, 10, 11, 13; Tables 4, 63, 65); details: Homo sapiens, 72 h, read-out: Survival (%); for viability at […]: […] test compound; for viability at 10 µM: 10 μM test compound; for viability at 30 µM: 30 μM test compound; for viability at 90 µM: 90 μM test compound
Description: After 3 days, cell viability was measured using CellTiter-Glo Luminescent Cell Viability Assay (Promega) or light microscopy.

[2] = tested on: HMGN1; experiment: HMGN1 ELISA in culture medium of A549 cancer cells (Example 12, Table 66); details: Homo sapiens; for activity at 90 µM: test compound 90 μM
[3] = tested on: HMGN1; experiment: HMGN1 ELISA in culture medium of foreskin cells (Examples 10, 11; Tables 62, 63, 64); details: Homo sapiens; for activity at 30 µM: read-out: HMGN1; for activity at 90 µM: 90 μM test compound
[4] = tested on: A549; experiment: CellTiter-Glo cell viability of senescent A549 cancer cells (Example 12, Table 67); details: Homo sapiens; for viability at 10 µM: 10 μM test compound; for viability at 30 µM: 30 μM test compound; for viability at 90 µM: 90 μM test compound
[5] = 1.1 μM test compound, doxorubicin-induced senescent foreskin cells, CellTiter-Glo, 0 μM = 100
[6] = doxorubicin-induced senescent foreskin cells, CellTiter-Glo, 0 μM = 100
[7] = A549, doxorubicin-induced senescent A549 cells, test compound 30 μM, ELISA, DMSO = 100, read-out: HMGN1 (amount of HMGN1 secreted in the cell culture)
[8] = 30 μM test compound, doxorubicin-treated foreskin cells, DMSO = 100
[9] = A549, doxorubicin-induced senescent A549 cancer cells, 1.1 μM test compound, CellTiter-Glo, read-out: Survival (%)
[10] = A549, doxorubicin-induced senescent A549 cells, ELISA, DMSO = 100, read-out: HMGN1 (amount of HMGN1 secreted in the cell culture)
[11] = doxorubicin-treated foreskin cells, DMSO = 100
[12] = A549, doxorubicin-induced senescent A549 cancer cells, CellTiter-Glo, read-out: Survival (%)

Cc1onc(C(=O)N2CCN(C(c3ccc(Cl)cc3)c3ccc(OCc4cn(CCNc5cccc6c5C(=O)N(C5CCC(=O)NC5=O)C6=O)nn4)cc3)CC2)c1[N+](=O)[O-] (centres unmarked) [LX-437, 4-((2-(4-((4-((4-chlorophenyl)(4-(5-methyl-4-nitroisooxazol-3-carbonyl)piperazin-1-yl)methyl)phenoxy)methyl)-1H-1,2,3-triazol-1-yl)ethyl)amino)-2-(2,6-dioxopiperidin-3-yl)isoindolin-1,3-dione]
viability at 1.1 µM [1, 5]: 86.2% | viability at […] [1, 6]: 10.9% | activity at 30 µM [2, 7]: 301% | activity at 30 µM [3, 8]: 309% | viability at 1.1 µM [4, 9]: 93.6%

CCCCC/C=C\C/C=C\CCCCCCCC(=O)O [LX-2703, Linoleic acid]
viability at 1.1 µM [1, 5]: 100% | viability at 10 µM [1, 6]: 89.5% | viability at 30 µM [1, 6]: 55.2% | viability at 90 µM [1, 6]: 35.2% | viability at […] [1, 6]: 100% | activity at 90 µM [2, 10]: 202% | activity at 90 µM [3, 11]: 218% | viability at 1.1 µM [4, 9]: 101% | viability at 10 µM [4, 12]: 99.6% | viability at 30 µM [4, 12]: 71.5% | viability at 90 µM [4, 12]: 28.3%

CCCCCCCCCCCCCCCC[P+](c1ccccc1)(c1ccccc1)c1ccccc1 [LX-1201, Hexadecyltriphenylphosphonium]
viability at 1.1 µM [1]: 23% | activity at 30 µM ([2]; A549, read-out: HMGN1 (amount of HMGN1 secreted in the cell culture)): 289% | activity at 30 µM [3]: 311% | viability at 1.1 µM ([4]; A549, read-out: Survival (%)): 47.3%

C[C@H](N)C(=O)N1C[C@H](CCCB(O)O)[C@](N)(C(=O)O)C1 [LX-3107]
viability at 1.1 µM [1, 5]: 87.7% | viability at 10 µM [1, 6]: 74.2% | viability at 30 µM [1, 6]: 33.4% | viability at […] [1, 6]: 83.4% | activity at 30 µM [2, 7]: 267% | activity at 30 µM [3, 8]: 196% | viability at 1.1 µM [4, 9]: 96.5% | viability at 10 µM [4, 12]: 77.8% | viability at 30 µM [4, 12]: 4.4%

Cc1c(O)cccc1C(=O)N[C@@H](CSc1ccccc1)[C@H](O)CN1C[C@H]2CCCC[C@H]2C[C@H]1C(=O)NC(C)(C)C [LX-1905, Nelfinavir, reference compound]
viability at 1.1 µM [1, 5]: 102% | viability at 10 µM [1, 6]: 27.9% | viability at 30 µM [1, 6]: 13.2% | viability at […] [1, 6]: 66.4% | activity at 30 µM [2, 7]: 201% | activity at 30 µM [3, 8]: 315% | viability at 1.1 µM [4, 9]: 100% | viability at 10 µM [4, 12]: 89.1% | viability at 30 µM [4, 12]: 53.9%

COC(=O)N[C@]12CCC(C)(C)C[C@H]1[C@H]1C(=O)C=C3[C@@]4(C)C=C(C#N)C(=O)C(C)(C)[C@@H]4CC[C@@]3(C)[C@]1(C)CC2 [LX-2305]
viability at 1.1 µM [1, 5]: 19.6% | activity at 30 µM [2, 7]: 269% | activity at 30 µM [3, 8]: 292% | viability at 1.1 µM [4, 9]: 33.6%

COc1cc2c(Nc3ccc(Br)cc3F)ncnc2cc1OCC1CCN(C)CC1 [LX-3302, Vandetanib, reference compound]
viability at 1.1 µM [1, 5]: 99.3% | viability at 10 µM [1, 6]: 6.7% | viability at […] [1, 6]: 51.9% | activity at 30 µM [2, 7]: 232% | activity at 30 µM [3, 8]: 268% | viability at 1.1 µM [4, 9]: 99.5% | viability at 10 µM [4, 12]: 67.9% | viability at 30 µM [4, 12]: 16.4%

CO[C@]1(C(=O)N[C@@H](C)c2ccc(-n3cc(F)cn3)nc2)CC[C@H](c2nc(C)cc(Nc3cc(C)[nH]n3)n2)CC1 [LX-1902, Pralsetinib, reference compound]
viability at 1.1 µM [1, 5]: 59% | viability at 10 µM [1, 6]: 11.9% | viability at 30 µM [1, 6]: 3.9% | viability at […] [1, 6]: 39.6% | activity at 30 µM [2, 7]: 271% | activity at 30 µM [3, 8]: 303% | viability at 1.1 µM [4, 9]: 66.2% | viability at 10 µM [4, 12]: 4.2%

O=S(=O)(NC1CCCCC1)c1ccc2c(c1)C(=NO)c1cc(S(=O)(=O)NC3CCCCC3)ccc1-2 [LX-602]
viability at 1.1 µM [1, 5]: 79% | viability at 10 µM [1, 6]: 25.9% | viability at 30 µM [1, 6]: 16.1% | viability at […] [1, 6]: 55.2% | activity at 30 µM [2, 7]: 248% | activity at 30 µM [3, 8]: 248% | viability at 1.1 µM [4, 9]: 102% | viability at 10 µM [4, 12]: 99% | viability at 30 µM [4, 12]: 41.8% | viability at 90 µM [4, 12]: 2.7%

C[C@@H]1[C@H]2[C@H]3C(=O)C=C4[C@@]5(C)C=C(C#N)C(=O)C(C)(C)[C@@H]5CC[C@@]4(C)[C@]3(C)CC[C@@]2(c2nc(CCO)no2)CC[C@H]1C [LX-2511]
viability at 1.1 µM [1, 5]: 43.5% | viability at […] [1, 6]: 8.4% | activity at 30 µM [2, 7]: 296% | activity at 30 µM [3, 8]: 306% | viability at 1.1 µM [4, 9]: 97.2% | viability at 10 µM [4, 12]: 2.1%

C=C(C)[C@@H]1CC[C@]2(C(=O)O)CC[C@]3(C)[C@H](CC[C@@H]4[C@@]5(C)CC[C@H](O)C(C)(C)[C@@H]5CC[C@]43C)[C@@H]12 [LX-2005, Betulinic acid]
viability at 1.1 µM [1, 5]: 97.5% | viability at 10 µM [1, 6]: 87.2% | viability at 30 µM [1, 6]: 73.8% | viability at 90 µM [1, 6]: 31.5% | viability at […] [1, 6]: 93.3% | activity at 270 µM ([2]; A549, doxorubicin-induced senescent A549 cells, test compound 270 μM, ELISA, DMSO = 100, read-out: HMGN1 (amount of HMGN1 secreted in the cell culture)): 252% | activity at 90 µM [3, 11]: 212% | viability at 1.1 µM [4, 9]: 102% | viability at 10 µM [4, 12]: 95.7% | viability at 30 µM [4, 12]: 82.9% | viability at 90 µM [4, 12]: 57.2% | viability at 270 µM ([4]; A549, doxorubicin-induced senescent A549 cancer cells, 270 μM test compound, CellTiter-Glo, read-out: Survival (%)): 5.3%

CC1(C)CC[C@]2(C(=O)O)CC[C@]3(C)C(=CC[C@@H]4[C@@]5(C)CC[C@H](O)C(C)(C)[C@@H]5CC[C@]43C)[C@@H]2C1 [LX-2003, Oleanolic acid]
viability at 1.1 µM [1, 5]: 89.6% | viability at 10 µM [1, 6]: 34.6% | viability at 30 µM [1, 6]: 14% | viability at […] [1, 6]: 65.8% | activity at 90 µM [2, 10]: 218% | activity at 30 µM [3, 8]: 298% | viability at 1.1 µM [4, 9]: 97.5% | viability at 10 µM [4, 12]: 90.6% | viability at 30 µM [4, 12]: 52.7% | viability at 90 µM [4, 12]: 18.3%

Cc1oncc1C(=O)Nc1ccc(C(F)(F)F)cc1 [LX-1603, Leflunomide, reference compound]
viability at 1.1 µM [1, 5]: 101% | viability at 10 µM [1, 6]: 91.1% | viability at 30 µM [1, 6]: 84.3% | viability at 90 µM [1, 6]: 48.3% | viability at […] [1, 6]: 95.6% | activity at 90 µM [2, 10]: 163% | activity at 90 µM [3, 11]: 168% | viability at 1.1 µM [4, 9]: 99.6% | viability at 10 µM [4, 12]: 95.7% | viability at 30 µM [4, 12]: 96.5% | viability at 90 µM [4, 12]: 49.8%

CC1=CCC(c2cc(C(=O)C3CCC(c4ccc(C#N)cc4)CC3)c(C)cc2C2CCC2)=C1 (centres unmarked) [LX-305]
viability at 1.1 µM [1, 5]: 101% | viability at 10 µM [1, 6]: 91% | viability at 30 µM [1, 6]: 78% | viability at 90 µM [1, 6]: 23.2% | viability at […] [1, 6]: 97.2% | activity at 90 µM [2, 10]: 227% | activity at 90 µM [3, 11]: 199% | viability at 1.1 µM [4, 9]: 99.2% | viability at 10 µM [4, 12]: 63.1% | viability at 30 µM [4, 12]: 41% | viability at 90 µM [4, 12]: 13.3%

O=C(C(C[N+](=O)[O-])=NO)N1CCN(C(c2ccc(Cl)cc2)c2ccc(Cl)cc2)CC1 [LX-403]
viability at 1.1 µM [1, 5]: 36.9% | viability at 10 µM [1, 6]: 6.5% | viability at […] [1, 6]: 15.5% | activity at 30 µM [2, 7]: 320% | activity at 30 µM [3, 8]: 275% | viability at 1.1 µM [4, 9]: 40.2% | viability at 10 µM [4, 12]: 3.5%
